Here are results for two compounds from patent US20240189294A1, “METHOD FOR REGULATING SEBACEOUS GLAND” (BUDDHIST TZU CHI MEDICAL FOUNDATION, priority 2021, published 2024).

Test [1] has as its system hair follicle pigmentation. Nature of the test: Fontana-Masson staining of hair follicle pigmentation after topical CK1 inhibitor. The note with it: topical 0.04 mg every other day, total 0.12 mg per 1 cm^2, mice 8 weeks old (telogen); FIG. 5E. It counts as in vivo, C57BL/6J mice. The procedure: (§1) Mice at 8 weeks old were shaved to remove hair on back skin and cleaned with 75% ethanol. Topical CKIs were applied on the back skin 3 times in one week, and the tissue was harvested on day 7, day 14 and some on day 28 after application of CKIs. The tissue was analyzed by the methods described below.
(§2) Skin samples were harvested at indicated timings for tissue analysis. Paraffin-embedded specimens were cut into 5-μm sections. After deparaffinization (with tissue slides being soaked in xylene three times, each time for 5 min) and rehydration (with slides being incubated in the following graded series of ethanol: 100%, 100%, 95%, 90% and 70%, 5 min each), the slides were rinsed with distilled water for 5 min.
Fontana-Masson staining and H&E staining were performed by using the kit from ScyTek Laboratories, Inc. according to the manufacturer's instructions.
Briefly, for Fontana-Masson staining, a freshly mixed ammoniacal silver solution was placed in a 58° C. to 60° C. water bath and allowed to equilibrate. The slides were incubated in a warmed ammoniacal silver solution for 30 to 60 min or until the tissue sections became yellow/brown in color, and were then rinsed with distilled water for 3 to 5 seconds (s). The slides were incubated in a gold chloride solution (0.2%) for 30 s and were then rinsed with distilled water for 3 to 5 s. […]

The subject of test [2] is hair follicles. The test is described as follows: Topical application of CK1 inhibitors on shaved back skin of wild-type mice: hair growth phenotype and H&E staining (hair cycle phase). It counts as in vivo, C57BL/6J mice. The note with it: topical 0.04 mg every other day, total 0.12 mg per 1 cm^2, mice 8 weeks old; for hair growth on the back skin (phenotype): three times, N=3, FIG. 5B; for hair cycle phase, H&E staining of back skin: FIG. 5C. The procedure: K14-Cr-ERT2-CK1α^fl/fl mice, Mc1r^549del mice and Mc1r^549del mice with CK1α ablation in keratinocytes (CK1α^−/−Mc1r^549del) were collaboratively generated in National Laboratory Animal Center (NLAC) in Tainan, Taiwan, and wild type C57BL/6J mice were also purchased from NLAC. Experiments and animal caring were performed in the Laboratory Animal Center, Tzu Chi University, Hualien, Taiwan, with the approval of Animal Care Committee in accordance with legal and ethical standards. Both male and female mice were used. The hair cycle in wild C57BL/6J mice is related to the age; weeks 4 to 6 are an anagen phase, weeks 6 to 7 are a catagen phase, and weeks 7 to 12 are a telogen phase.
A51 is a gift from Dr. Yinon Ben-Nerian's lab (which was published in Cell, Volume 175, Issue 1, 20 Sep. 2018, pages 171-185). For topical application onto mouse skin, 1 mg of CKI was dissolved in 6 μL dimethyl sulfoxide (DMSO) and mixed with 54 μL of vehicle which contained 60% of white wax and 40% of paraffin oil. The final working concentration is 0.1 mg/cm^2.
D4476 was purchased from Sigma Aldrich (#D1944). For topical application onto mouse skin, 4 mg of CKI was dissolved in 1 mL DMSO as the stock. 10 μL stock was mixed with 40 μL of vehicle which contained 60% of white wax and 40% of paraffin oil. The final working concentration is 0.04 mg/cm^2.
IC261 was purchased from Sigma Aldrich (#40090). For topical application onto mouse skin, 4 mg of CKI was dissolved in 1 mL DMSO as the stock. 10 μL stock was mixed with 40 μL of vehicle which contained 60% of white wax and 40% of paraffin oil. The final working concentration is 0.04 mg/cm^2.
as §1, §2
For histopathology by H&E staining, skin tissues were fixed overnight in 10% neutral buffered formalin at 4° C. and then transferred to 70% ethanol before being processed and embedded in paraffin. Paraffin sections were then stained with H&E.

Test [3] deals with β-catenin. The test is described as follows: Immunohistochemical staining of β-catenin in back skin after topical CK1 inhibitor. It counts as in vivo, C57BL/6J mice. The note with it: topical 0.04 mg every other day, total 0.12 mg per 1 cm^2, mice 8 weeks old; FIG. 5D. The procedure:
as §1, §2
Paraffin sections were incubated in a humidity chamber for 15 min at 60° C. Sections were deparaffinized in two changes of xylene for 5 min each and hydrated in two changes of 100% ethanol for 5 min each, then in 95% and 80% ethanol for 5 min each, and finally rinsed in distilled water. Antigen retrieval was enhanced by microwaving the slides in a citrate buffer (DAKO; pH 6.0) for 20 min. Endogenous peroxidase activity was quenched with 3% hydrogen peroxide in methanol. After blocking, sections were incubated overnight at 4° C. with β-catenin antibody (1/100; BD Bioscience). Secondary antibodies used were horseradish peroxidase (HRP)-polymer anti-mouse antibodies (Nichirei). […]

Test [4] relates to PPARγ. The test is described as follows: Western blot of PPARγ in SZ95 cells. It counts as cell-based, human. The note with it: IC261 at different concentrations vs DMSO, FIG. 8C. The procedure: (§3) For experiments involving tissues, the tissues were homogenized and lysed in 1× tissue protein extraction reagent (Thermo Fisher) containing protease inhibitor (Millipore) and kept on ice; for experiments involving cells, cell pellet was collected and lysed in 1×radioimmunoprecipitation assay (RIPA) lysis buffer containing protease inhibitor (Millipore) and kept on ice. The total protein concentration was determined using Protein Assay Dye Reagent Concentrate (Bio-Rad) following manufacturer's instruction with a microplate reader. Sample was diluted in SDS-PAGE Sample Buffer (Bio-Rad) and heated at 95° C. for 5 minutes. The protein sample was then resolved on SDS-PAGE gels (TGX FastCast acrylamide solutions, Bio-Rad) and transferred onto poly(vinylidene fluoride) (PVDF) membranes (Millipore). 5% BSA was used, and then the membranes were incubated with primary antibodies overnight at 4° C. The membranes were then washed by Tris-buffered saline with Tween 20 (TBST) and incubated with secondary antibodies for 1 hour at room temperature. The signal was detected using iBright FL1000 Imaging System from Thermo Fisher Scientific.
(§4) The antibodies used in immunohistochemistry (IHC) and Western blotting (WB) in this disclosure were listed in Table 1 below, where manufacturers, catalogue number and the dilution ratio used were provided. […]

The subject of test [5] is c-Myc. The test is described as follows: Western blot of c-Myc in SZ95 cells. It counts as cell-based, human. The note with it: IC261 at different concentrations vs DMSO, FIG. 8C. The procedure: as §3, §4
Test [6] deals with LC3B. Nature of the test: Western blot of LC3B (autophagy marker) in SZ95 cells. It counts as cell-based, human. The note with it: FIG. 8D. The procedure:
as §3, §4

Test [7] has as its system SZ95 cells (human sebocyte cell line). The test is described as follows: WST-1 assay in SZ95 cells. It counts as cell-based. The note with it: 1.5×10^4 cells/well, treated for 24 hr, FIG. 8B. The procedure:
SZ95 cells (human sebocyte cell line) were maintained in Sebomed basal Medium (Sigma) supplemented with 10% FBS and 5 ng/mL epidermal growth factor under standard cell culture conditions of 37° C. and 5% CO2.
WST-1 assay. Seeding cells with density 1.5×10^4 cells/well in 96-well plate, incubate overnight. Remove medium and add 100 μL fresh medium contain various amount of IC261 (1, 50, 100, 200, 500, 1000 nM) in each well, incubate for 24 hr. Add 10 μL/well WST-1, incubate for 4 hr. Measure the absorbance of OD 450 nm and OD 655 nm by ELISA reader.

“Also recorded” adds a separate entry of the source.

Take `NC(=O)c1ccc(-c2nc(-c3ccc4c(c3)OCCO4)c(-c3ccccn3)[nH]2)cc1` [D4476]: the “hair follicle pigmentation, Fontana-Masson staining” value in test [1] is “induce hair follicle growth and pigmented hair formation; also recorded: Heavily pigmented hair follicles and shafts”. Besides, in test [2], the “hair growth on the back skin (phenotype)” value is listed as “significantly induced hair growth” and the “hair cycle phase, H&E staining of back skin” value is recorded as “induces an anagen phase of the hair cycle”. For the same compound, the “expression of β-catenin, immunohistochemical staining” value in test [3] is recorded as “increased the expression of β-catenin in the matrix of hair follicle”.
`COc1cc(OC)c(C=C2C(O)=Nc3ccccc32)c(OC)c1` [IC261]: in test [1], the “hair follicle pigmentation, Fontana-Masson staining” value was “induce hair follicle growth and pigmented hair formation; also recorded: Heavily pigmented hair follicles and shafts”. Moreover, in test [2], the “hair growth on the back skin (phenotype)” value is given as “significantly induced hair growth” and the “hair cycle phase, H&E staining of back skin” value was “induces an anagen phase of the hair cycle”. For the same compound, the “PPARγ expression (biomarker for adipogenesis)” value in test [4] is on record as “decreased”. Besides, in test [5], the “c-Myc expression (biomarker for undifferentiated sebocytes)” value is “increased”. The “LC3B expression (marker for autophagy)” value in test [6] is given as “increase with a dose dependent manner”. This compound displayed an IC50 in test [7] of roughly 476 nM. The “expression of β-catenin, immunohistochemical staining” value in test [3] is given as “increased the expression of β-catenin in the matrix of hair follicle”.
